According to article doi:10.1101/2023.10.01.560353v1 (bioRxiv, 2023):
In brackets after ≈: the same amount, converted by molar mass. Peptide text beside a SMILES is read from it.

The compounds below were run on 11 clinically relevant bacterial pathogens (assay: MIC over the panel of pathogens). Conditions: Table S17; lowest MIC over the strains tested.
Assay type: cell-based

Q: How did the “MIC (lowest MIC value obtained in the antimicrobial activity assays)” value (from here on “MIC”) turn out when `CC[C@H](C)[C@H](NC(=O)[C@H](CCCCN)NC(=O)[C@@H](N)CCCNC(=N)N)C(=O)N[C@@H](CC(C)C)C(=O)NCC(=O)N[C@@H](CC(=O)O)C(=O)N[C@@H](CC(C)C)C(=O)N[C@@H](CCCCN)C(=O)N[C@@H](Cc1ccccc1)C(=O)N[C@@H](CC(C)C)C(=O)N[C@@H](CCC(=O)O)C(=O)N[C@@H](CO)C(=O)N[C@@H](CC(C)C)C(=O)N[C@@H](CCCCN)C(=O)N[C@H](C(=O)N[C@@H](Cc1ccc(O)cc1)C(=O)O)[C@@H](C)O` [Anomalopterin-1] (H-RKILGDLKFLESLKTY-OH) was run?
A: 64000 mM (≈ 123000 mg/mL)

Q: `CC[C@H](C)[C@H](NC(=O)[C@H](CC(C)C)NC(=O)[C@@H](NC(=O)[C@H](CCCCN)NC(=O)[C@H](Cc1c[nH]c2ccccc12)NC(=O)[C@@H](NC(=O)[C@H](CCCCN)NC(=O)[C@H](CC(=O)O)NC(=O)[C@@H](NC(=O)[C@H](CC(C)C)NC(=O)[C@H](Cc1ccccc1)NC(=O)[C@H](C)NC(=O)CNC(=O)[C@@H](NC(=O)[C@@H](N)CCCCN)C(C)C)C(C)C)C(C)C)[C@@H](C)O)C(=O)O` [Anomalopterin-2] (H-KVGAFLVDKVWKTLI-OH) was tested. Which “MIC” value did it give?
A: 32000 mM (≈ 54900 mg/mL)

Q: How did the “MIC” value turn out when `CC[C@H](C)[C@H](N)C(=O)N[C@@H](CC(C)C)C(=O)N[C@@H](CC(C)C)C(=O)N[C@H](C(=O)N[C@H](C(=O)N[C@@H](C)C(=O)N[C@H](C(=O)N[C@@H](C)C(=O)N[C@H](C(=O)N[C@@H](CCCCN)C(=O)N[C@@H](CC(C)C)C(=O)NCC(=O)N[C@@H](CC(C)C)C(=O)O)[C@@H](C)CC)[C@@H](C)CC)[C@@H](C)O)[C@@H](C)O` [Ararin-1] (H-ILLTTAIAIKLGL-OH) was run?
A: 32000 mM (≈ 42900 mg/mL)

Q: How did the “MIC” value turn out when `CC[C@H](C)[C@H](NC(=O)[C@H](CCCCN)NC(=O)[C@H](CC(N)=O)NC(=O)[C@@H](NC(=O)[C@@H](NC(=O)[C@H](Cc1c[nH]c2ccccc12)NC(=O)[C@H](CC(C)C)NC(=O)[C@H](CCC(N)=O)NC(=O)[C@H](CC(C)C)NC(=O)[C@@H](NC(=O)[C@H](C)NC(=O)[C@H](CC(C)C)NC(=O)[C@@H](N)CCCNC(=N)N)[C@@H](C)O)[C@@H](C)O)[C@@H](C)CC)C(=O)N[C@H](C(=O)N[C@@H](CCCCN)C(=O)N[C@@H](CCC(N)=O)C(=O)N[C@@H](CC(C)C)C(=O)N[C@@H](CCSC)C(=O)N[C@H](C(=O)N1CCC[C@H]1C(=O)N[C@@H](CC(C)C)C(=O)N[C@@H](CC(N)=O)C(=O)N[C@@H](CCCCN)C(=O)N1CCC[C@H]1C(=O)NCC(=O)N[C@@H](Cc1c[nH]cn1)C(=O)N[C@@H](CCCCN)C(=O)O)[C@@H](C)CC)[C@@H](C)O` [Ararin-2] (H-RLATLQLWTINKITKQLMIPLNKPGHK-OH) was run?
A: 16000 mM (≈ 50500 mg/mL)

Q: Which “MIC” value does the source give for `CC[C@H](C)[C@H](NC(=O)[C@H](CC(C)C)NC(=O)[C@H](Cc1c[nH]cn1)NC(=O)[C@@H](NC(=O)[C@H](CC(C)C)NC(=O)[C@H](CC(C)C)NC(=O)[C@H](Cc1c[nH]cn1)NC(=O)CN)[C@@H](C)CC)C(=O)NCC(=O)N[C@@H](CCCCN)C(=O)N[C@@H](C)C(=O)N[C@H](C(=O)N[C@@H](CC(C)C)C(=O)N[C@@H](C)C(=O)N[C@@H](CC(C)C)C(=O)O)[C@@H](C)O` [Arctoterin-1] (H-GHLLIHLIGKATLAL-OH) here?
A: 64000 mM (≈ 100000 mg/mL)

Q: `CC[C@H](C)[C@H](NC(=O)[C@H](Cc1ccccc1)NC(=O)[C@H](CC(N)=O)NC(=O)[C@@H](NC(=O)[C@@H](NC(=O)[C@H](Cc1c[nH]cn1)NC(=O)[C@@H](N)CC(C)C)[C@@H](C)O)[C@@H](C)CC)C(=O)N[C@H](C(=O)N[C@@H](CCCCN)C(=O)N[C@@H](CO)C(=O)N[C@@H](CC(C)C)C(=O)N[C@@H](CC(C)C)C(=O)N[C@@H](CC(C)C)C(=O)O)[C@@H](C)CC` [Bisonin-1] (H-LHTINFIIKSLLL-OH) was tested. Which “MIC” value did it give?
A: 16000 mM (≈ 24400 mg/mL)
